Assay results: patent US20210315880A1, “METHODS OF TREATING VIRAL INFECTIONS USING INHIBITORS OF NUCLEOTIDE SYNTHESIS PATHWAYS” (priority 2020, published 2021)
Where two headings read alike, the source gives them in different places.

Legend:
[1] = tested on: solid malignancies; conditions: cited from earlier work; for recommended dose for phase II studies: 1-h i.v. infusion every 3 weeks; for maximum tolerable dose: i.v. infusion every 3 weeks
[2] = tested on: advanced lung cancer; conditions: weekly rapid iv injection, previously treated patients with advanced lung cancer; cited from earlier work
[3] = tested on: RNA virus; assay: Daily brequinar x 5 days in a subject infected with an RNA virus; type: in vivo; conditions: at first peak in brequinar level, once per day for five days
Procedure: The mechanism by which administration of a DHODH inhibitor according to a daily dosing regimen inhibits viral replication is illustrated below. […] Throughout the course of the dosing regimen, levels of intracellular pyrimidines, such as uridine, and viral replication are measured.

[4] = molecular target: DHODH (Homo sapiens, UniProt Q02127)
[5] = in vivo
[6] = Adverse events in subjects receiving brequinar intravenously once a week; conditions: Infection
[7] = in vivo; remark: listed apart in the source
[8] = tested on: acute myeloid leukemia (AML); assay: Effect of brequinar-containing composition on patient with AML; type: in vivo, human
[9] = tested on: Vero E6 cells; conditions: remdesivir co-treated with brequinar
[10] = tested on: SARS-CoV-2; type: cell-based

Chain of DHODH (Q02127 whole entry): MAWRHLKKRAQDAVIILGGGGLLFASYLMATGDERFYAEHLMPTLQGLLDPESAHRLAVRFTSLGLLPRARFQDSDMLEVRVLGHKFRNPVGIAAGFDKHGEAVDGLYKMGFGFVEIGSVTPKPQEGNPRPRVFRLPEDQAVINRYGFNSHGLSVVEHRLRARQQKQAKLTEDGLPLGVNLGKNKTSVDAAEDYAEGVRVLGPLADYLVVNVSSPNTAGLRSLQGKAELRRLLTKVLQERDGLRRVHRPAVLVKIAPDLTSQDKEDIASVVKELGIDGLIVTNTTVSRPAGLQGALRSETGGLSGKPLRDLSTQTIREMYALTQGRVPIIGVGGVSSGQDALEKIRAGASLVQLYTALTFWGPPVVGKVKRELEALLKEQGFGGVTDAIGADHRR

**Q.** For `Cc1c(-c2ccc(-c3ccccc3F)cc2)nc2ccc(F)cc2c1C(=O)O` [Brequinar sodium], which “recommended dose for phase II studies” value ([1]; good-risk patients) is on record?
**A.** 1,800 mg/m^2

**Q.** And the maximum tolerable dose ([1]; good-risk patients)?
**A.** 2,250 mg/m^2

**Q.** And the tumor response ([1]; patient with papillary carcinoma of the thyroid)?
**A.** One mixed response

**Q.** And the “recommended dose for phase II studies” value ([1]; poor-risk patients)?
**A.** 1,200 mg/m^2

**Q.** And the maximum tolerable dose ([1]; poor-risk patients)?
**A.** 1,500 mg/m^2

**Q.** Which therapeutic value [2] does the source give for `NC(=O)c1[nH]nc([C@@H]2O[C@H](CO)[C@@H](O)[C@H]2O)c1O` [PYR, 5-[(2S,3R,4S,5R)-3,4-dihydroxy-5-(hydroxymethyl)oxolan-2-yl]-4-hydroxy-1H-pyrazole-3-carboxamide] here?
**A.** has little therapeutic value as a single agent

**Q.** What does the source list for `Cc1c(-c2ccc(-c3ccccc3F)cc2)nc2ccc(F)cc2c1C(=O)O` [brequinar, 6-fluoro-2-(2′-fluoro-1,1′ biphenyl-4-yl)-3-methyl-4-quinoline carboxylic acid]?
**A.** intracellular pyrimidine pool [3]: dramatic decrease in the intracellular pyrimidine pool; viral replication [3]: dramatic reduction in viral replication; concentrations at which DHODH is almost completely inhibited [4]: > 1 µM; oral versus IV formulations [5]: oral and IV formulations are equivalent; No. of Patients [6]: 7; No. of Patients Experiencing the AE, 5 y Max Grade 1 [6]: 4; No. of Patients Experiencing the AE, 5 y Max Grade 2 [6]: 3; No. of Patients Experiencing the AE, 5 y Max Grade 3 [6]: 0; No. of Patients Experiencing the AE, 5 y Max Grade 4 [6]: 0; Percent [6]: 3.3%; effect of repeated doses [7]: No cumulative effective of repeated doses; response ([8]; first patient with AML (Example 12)): positive response as indicated by reduction in bone marrow blast count, improvement of extramedullary hematopoiesis, and shift to more differentiation in peripheral blasts; response ([8]; patient with AML of Example 14): positive response as indicated by a trend towards differentiation of their peripheral blasts; response ([8]; second patient with AML (Example 13)): positive response to the disease with a lowering of peripheral blasts and increase in absolute neutrophil count, along with greater differentiation of peripheral blasts

**Q.** Which cytotoxicity of co-treatment [9] does the source give for `CCC(CC)COC(=O)[C@H](C)N[P@](=O)(OC[C@H]1O[C@@](C#N)(c2ccc3c(N)ncnn23)[C@H](O)[C@@H]1O)Oc1ccccc1` [remdesivir] here?
**A.** No enhanced cytotoxicity

**Q.** What about the “Min Data” value ([10]; brequinar 0.000 μM) of the same compound?
**A.** −11%

**Q.** What about the “Min Data” value ([10]; brequinar 0.078 μM) of the same compound?
**A.** −1.9%
